Data reported in patent US20230130144A1, “PHARMACEUTICAL COMBINATION AND USE THEREOF” (NATURAL MEDICINE INSTITUTE OF ZHEJIANG YANGSHENGTANG CO., …, priority 2020, published 2023).
Where “and” joins values, the source holds several entries; their conditions need not be identical. Equal values may be shown once. Read-outs that look alike come from different tables or passages of the source.

What was measured:
Format in all cases: cell-based
[1] = tested on: HOS human osteosarcoma cells; experiment: Cell count (Trypan Blue) viability, drug combination administration, HOS cells; conditions: 24 h, read-out: cell viability
Procedure: HEK293 cells, HOS human osteosarcoma cells and 143B human osteosarcoma cells were subcultured in an incubator at 37° C., 5% CO2 using a RPMI-1640 medium containing 10% fetal bovine serum (FBS).
(§1) 10 μL was taken for counting.
(3) After counting, the cells were diluted to 1×10^5 cells/ml.
(§2) (5) After 24 h of dosing, the medium was discarded. […] The cells were digested for 5 min.

[2] = tested on: 143B human osteosarcoma cells; experiment: Cell count (Trypan Blue) viability, drug combination administration, 143B cells; conditions: 24 h; for viability at 20 µM / viability at 50 µM / viability at 10 µM: Homo sapiens, read-out: cell viability
Procedure: as §1, §2

MC38 colon cancer cells = experiment: Cell viability of colon cancer cells by the method of Example 1; conditions: Mus musculus
Procedure: (§3) (6) After digestion, equivalent amounts of PBS were added into each well and mixed uniformly. Then, 10 μL/well of Trypan Blue solution was added and mixed uniformly. 10 μL of the well-mixed solution was taken and counted. In accordance with “Cell viability=Cell Count of Test Group/Cell Count of Control Group×100%”, the cell viability of various groups was calculated.
For example, as for MC38 colon cancer cells, the control group involves adding the solvent DMSO alone, the Nic group involves adding 1 μM of Niclosamide, the Vc group involves adding 0.5 mM of ascorbic acid, the Nic+Vc group involves adding 1 μM of Niclosamide and 0.5 mM of ascorbic acid.

DB lymphoma cells = experiment: Cell viability of lymphoma cells by the method of Example 1; conditions: Homo sapiens
Procedure: as §3
For example, as for the DB lymphoma cells, the control group involves adding the solvent DMSO alone, the Vc group involves adding 2 mM of ascorbic acid, the low-dose Nic group involves adding 1 μM of Niclosamide, the low-dose Nic+Vc group involves adding 1 μM of Niclosamide and 2 mM of ascorbic acid, the high-dose Nic group involves adding 2 μM of Niclosamide, and the high-dose Nic+Vc group involves adding 2 μM of Niclosamide and 2 mM of ascorbic acid.

SMILES: Cn1c(=O)c2c(ncn2CC(=O)Nc2ccc(-c3ccccc3)nn2)n(C)c1=O [ETC-159]
- viability at 20 µM ([1]; HOS): 67%
- viability at 20 µM ([2]; 143B): 60%

SMILES: Cc1cc(-c2ncc(CC(=O)Nc3ccc(-c4cnccn4)cn3)cc2C)ccn1 [LGK974]
- viability at 20 µM ([1]; HOS): 67%
- viability at 20 µM ([2]; 143B): 64%

SMILES: O=C(O)CC[C@H]1CC[C@@](c2cc(F)ccc2F)(S(=O)(=O)c2ccc(Cl)cc2)CC1 [MK0752]
- viability at 20 µM ([1]; HOS): 67%
- viability at 20 µM ([2]; 143B): 62%

SMILES: O=C(Nc1ccc([N+](=O)[O-])cc1Cl)c1cc(Cl)ccc1O [Niclosamide]
- viability at 1 µM (MC38 colon cancer cells; MC-38, 1 μM Niclosamide alone): 82%
- viability at 50 µM ([1]; HOS): 56%
- viability at 1 µM (DB lymphoma cells; 1 μM Niclosamide alone (low-dose)): 57%
- viability at 2 µM (DB lymphoma cells; 2 μM Niclosamide alone (high-dose)): 52%
- viability at 50 µM ([2]; 143B): 59%

SMILES: CC(C)(C(=O)NCC(F)(F)C(F)(F)F)C(=O)N[C@@H]1C(=O)Nc2ccccc2-c2ccccc21 [RO4929097]
- viability at 10 µM ([1]; HOS): 56%
- viability at 10 µM ([2]; 143B): 58%

SMILES: Cc1c(C(=O)Nc2ccc(N3C[C@@H](C)O[C@@H](C)C3)nc2)cccc1-c1ccc(OC(F)(F)F)cc1 [Sonidegib]
- viability at 10 µM ([1]; HOS): 89%
- viability at 10 µM ([2]; 143B): 74%

SMILES: CC1=C(CC(=O)O)c2cc(F)ccc2/C1=C\c1ccc([S+](C)[O-])cc1 (centres unmarked) [Sulindac]
- viability at 50 µM ([1]; HOS): 92%

SMILES: CS(=O)(=O)c1ccc(C(=O)Nc2ccc(Cl)c(-c3ccccn3)c2)c(Cl)c1 [Vismodegib]
- viability at 50 µM ([1]; HOS cells, single drug 50 μM): 53%
- viability at 50 µM ([2]; 143B cells, single drug 50 μM): 60%

SMILES: O=C1O[C@H]([C@@H](O)CO)C(O)=C1O [ascorbic acid]
- viability at 500 µM (MC38 colon cancer cells; MC-38, 0.5 mM ascorbic acid alone): 105%
- viability at 2000 µM (DB lymphoma cells; 2 mM ascorbic acid alone): 76%

SMILES: COc1ccc2cc3[n+](cc2c1OC)CCc1cc2c(cc1-3)OCO2 [berberine]
- viability at 20 µM ([1]; HOS): 82%
- viability at 20 µM ([2]; 143B): 94%

SMILES: O=C1O[C@H]([C@@H](O)CO)C([O-])=C1O.[Na+] [sodium ascorbate]
- cell viability ([2]; 143B cells, 0.5 mM sodium ascorbate alone): 106% and 90% and 83% and 77% and 80% and 81% and 82%
